According to patent US20090156644A1, “Use of thiazole derivatives and analogues in the treatment of cancer” (priority 2005, published 2009):

What was measured:
MDA-MB-231 cells = assay: Test A cell proliferation assay (FFA/linolenic acid stimulated, S-phase by flow cytometry); type: cell-based, human; conditions: linolenic acid 100 μM, 24 hours; Compounds X and Y 10 μM, Compound Z 40 μM; FIGS. 1c, 2A-2C
Description: Dulbecco's modified Eagle's medium (D-MEM)+1000 mg/L Glucose+GlutaMAX™1+Pyruvate (Gibco #21885-025)
PEST (100 U/ml penicillin, 100 ug/ml streptomycin, Gibco 15140-122) CyStain PI absolute T Kit (Partec #05-5023) Linolenic acid 99%, L2376 from Sigma Aldrich Dimethyl sulfoxide (DMSO)
Cytomics™ FC500 Flow Cytometer with CXP software (Beckman Coulter) MDA-MB-231 cells
MDA-MB-231 cells were cultured in the propagation media D-MEM+1000 mg/L Glucose+GlutaMAX™1+Pyruvate supplemented with 10% V/V Foetal Bovine Serum and PEST (100 U/ml penicillin, 100 μg/mL streptomycin). Cells were seeded in 6 well plates to a density of 300 000 cells/well in propagation media. After 24 hours, media was replaced with serum free D-MEM media.
Linolenic acid was diluted in DMSO to a concentration of 100 mM and added to the culture media to a final concentration of 100 μM.
Compounds were as dissolved in DMSO to a concentrations of 10 mM (Compounds of Examples 95 and 6 (Compound X and Compound Y, respectively)) and 40 mM (Compound of Example 4 (Compound Z)) and added to the culture media to a final concentration of 10 μM (X and Y) and 40 μM (Z) respectively.
After 24 hours in serum free media DMEM, linolenic acid (to a final concentration of […]) and compounds to be screened for activity were added to a final concentration of 10 μM (Compounds X and Y) and 40 μM (Compound Z) respectively. Final DMSO concentration was kept at 0.2% in all wells. After 24 hours of stimulation, cells were harvested and propidium iodine stained using a CyStain PI absolute T Kit according to manufacturer's recommendations. Cells were subsequently analyzed using a Cytomics™ FC500 Flow Cytometer with CXP software (Beckman Coulter) for cell cycle distribution. Cells were incubated with or without linolenic acid (LA) and the Compounds X, Y and Z for 24 hours at indicated concentrations. Cells in S-phase from untreated sample were set to 100% in each experiment.

[1] = system: MDA-MB-231 human breast cancer cells; assay: Test B in vivo mouse model, tumor histology; set-up: species or system Athymic BALB/cA nude mice; conditions: 1 mg/kg intraperitoneal once daily for 9 days; for cell density in the interior of the tumor section / cells displaying macrophage/monocyte morphology in the interior of the tumor section: hematoxylin stained cryosections, versus vehicle
Description: week old Athymic BALB/cA nude mice were delivered from Taconic (Denmark) and kept under barrier conditions for 1 week acclimatisation. At 6 weeks, 17 mice were injected subcutaneously on the flank with 1.8×10^6 MDA-MB-231 human breast cancer cells (LGC Promochem-ATCC) in a 50/50 v/v solution of phosphate buffered saline (PBS) (Gibco 10010-015, Invitrogen) Matrigel HC (BD Biosciences).
2 mice were sacrificed and the tumors dissected and examined. 2 groups of 7 mice each were treated once daily by intraperitoneal injections of 1 mg/kg bodyweight of the compound of Example 6 (Compound Y) in PBS/1% v/v dimethylsufoxide or vehicle control respectively for 9 days. The mice were sacrificed by cervical dislocation and tumors were dissected.
The tumor tissue were fixated overnight in PBS (containing 4% w/v paraformaldehyde (Scharlau PA0095, Sharlau Chemie SA, Spain) at +4° C. The tumor tissue were then cryopreserved by 24 hour incubation in PBS containing 30% w/v sucrose (BDH #102745C (www.vwr.com) at +4° C. and embedded in Tissue-Tek embedding media (Sakura Finetek Europa BV, Netherlands). 10 μm cryosections were generated an stained with Mayers Hematoxylin (Dako) for 5 min and destained for 3×10 minutes in tap water. Slides were mounted using Dako faramount aqueous mounting medium and examined using a Nikon Eclipse TS 100 microscope documented using a Nikon coolpix 4500.
The tumors from mice treated with test compound and vehicle were analyzed for morphology by microscopic examination of hematoxylin stained cryosections.

O=C1NC(=Nc2ccccn2)SC1Cc1ccc(F)cc1 (centres unmarked) [Compound X, 5-(4-Fluorobenzyl)-2-(pyridin-2-ylimino)thiazolidin-4-one]
antagonism of free fatty acid stimulated cell proliferation (MDA-MB-231 cells): able to antagonize free fatty acid stimulated cell proliferation

O=C1NC(=Nc2ccc(Cl)cc2)SC1Cc1cccc(C(F)(F)F)c1 (centres unmarked) [Compound Y, 5-(3-(Trifluoromethyl)benzyl)-2-(4-chlorophenylimino)thiazolidin-4-one]
antagonism of free fatty acid stimulated cell proliferation (MDA-MB-231 cells): able to antagonize free fatty acid stimulated cell proliferation
cells displaying fibroblast morphology in the interior of the tumor section ([1]; hematoxylin stained cryosection, 20× magnification): lack of cells displaying fibroblast morphology
cell density in the interior of the tumor section [1]: low cell density
cells displaying macrophage/monocyte morphology in the interior of the tumor section [1]: accumulation of cells displaying morphology indicative of macrophage/monocyte
cell density in the interior of the tumor section ([1]; listed as test compound): markedly reduced
cells displaying macrophage/monocyte morphology in the interior of the tumor section ([1]; listed as test compound): a frequent finding

Cc1ccc(N=C2NC(=O)C(Cc3cccc(C(F)(F)F)c3)S2)cc1 (centres unmarked) [Compound Z, 5-(3-(Trifluoromethyl)benzyl)-2-(p-tolylimino)thiazolidin-4-one]
antagonism of free fatty acid stimulated cell proliferation (MDA-MB-231 cells): able to antagonize free fatty acid stimulated cell proliferation
